CC(=O)N1CCN(c2ccc(OC[C@@H]3CO[C@@](Cn4ccnc4)(c4ccc(Cl)cc4Cl)O3)cc2)CC1 (racemic)
solubility (mole fraction)
Details	293.2 K	298.2 K	303.2 K	308.2 K	313.2 K
in n-propanol	0.0056	0.00703	0.00948	0.0128	0.0175
in water	3.8e-07	4.25e-07	4.46e-07	4.8e-07	5.11e-07

From BigSolDB 2.1
